Test results: patent US12209102B2, “Heterocyclic compounds and uses thereof” (Kumquat Biosciences Inc., priority 2022, dated 2025)

Legend:
K-Ras G12D = molecular target: T1, K-Ras G12D (Homo sapiens, UniProt P01116, G12D); test: HTRF resonance energy transfer assay, K-Ras G12D / SOS1 interaction; type: biochemical; settings: HTRF assay of Example 5; read-out: IC50 against K-Ras G12D
T1 construct: made in house; host or cells: E. coli BL21 (DE3)
In short: (§1)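 Buffer about 5 mM HEPES pH 7.4 with ~150 mM NaCl, ~1 mM DTT, 0.05% BSA, 0.0025% (v/v) Igepal. Protein constructs used at molarity matching the IC50 range studied (e.g. ~500 nM). FRET between tagged K-Ras and hSOS1 measured after short incubation.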

K-Ras G12S = molecular target: T2, K-Ras G12S (Homo sapiens, UniProt P01116, G12S); test: HTRF resonance energy transfer assay, K-Ras G12S / SOS1 interaction; type: biochemical; settings: HTRF assay of Example 5; read-out: IC50 against K-Ras G12S
T2 construct: made in house; host or cells: E. coli BL21 (DE3)
In short: as §1

K-Ras G12V = molecular target: T3, K-Ras G12V (Homo sapiens, UniProt P01116, G12V); test: HTRF resonance energy transfer assay, K-Ras G12V / SOS1 interaction; type: biochemical; settings: HTRF assay of Example 5; read-out: IC50 against K-Ras G12V
T3 construct: made in house; host or cells: E. coli BL21 (DE3)
In short: as §1

K-Ras WT = molecular target: T4, K-Ras WT (Homo sapiens, UniProt P01116); test: HTRF resonance energy transfer assay, K-Ras WT / SOS1 interaction; type: biochemical; settings: HTRF assay of Example 5; read-out: IC50 against K-Ras WT
T4 construct: made in house; host or cells: E. coli BL21 (DE3)
In short: as §1

SW620 cells = test: Ras cellular assay, growth of cells with K-Ras G12V mutation (CellTiter-Glo); type: cell-based; settings: Homo sapiens, SW-620; cell growth, Example 9, G12V mutation; read-out: IC50 against SW620 cells
In short: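 IC50 values came from a four-parameter fit of CellTiter-Glo viability, read roughly 6 days after dosing with e.g. a 10-point threefold dilution series. G12V-mutant SW620 cells (e.g. 800 per well) had been plated the previous day in RPMI-1640/10% heat-inactivated FBS, on tissue culture-treated or ultra-low attachment plates.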

GP2D cells = test: Ras cellular assay, growth of cells with K-Ras G12D mutation (CellTiter-Glo); type: cell-based; settings: cell growth, Example 9, G12D mutation, read-out: IC50 against GP2D cells
A549 cells = test: Ras cellular assay, growth of cells with K-Ras G12S mutation (CellTiter-Glo); type: cell-based; settings: Homo sapiens, cell growth, Example 9, G12S mutation, read-out: IC50 against A549 cells
In short: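 Growth inhibition IC50 values come from four-parameter fits of CellTiter-Glo luminescence, read about 6 days after compound addition. G12S-mutant A549 cells (e.g. 800/well, RPMI-1640 + 10% heat-inactivated FBS) were plated in tissue-culture-treated or ultra-low-attachment 384-well format. Dosing began the following day with serial dilutions, e.g. 10 points, 3-fold.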

T2 sequence (P01116 1-188 isoform P01116-2 G12S): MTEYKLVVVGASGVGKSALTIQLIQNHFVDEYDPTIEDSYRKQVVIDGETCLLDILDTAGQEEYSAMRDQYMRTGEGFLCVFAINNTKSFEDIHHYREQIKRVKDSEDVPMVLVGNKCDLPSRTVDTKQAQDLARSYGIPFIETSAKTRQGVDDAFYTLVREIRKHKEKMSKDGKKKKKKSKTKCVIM
T1 sequence (P01116 1-188 isoform P01116-2 G12D): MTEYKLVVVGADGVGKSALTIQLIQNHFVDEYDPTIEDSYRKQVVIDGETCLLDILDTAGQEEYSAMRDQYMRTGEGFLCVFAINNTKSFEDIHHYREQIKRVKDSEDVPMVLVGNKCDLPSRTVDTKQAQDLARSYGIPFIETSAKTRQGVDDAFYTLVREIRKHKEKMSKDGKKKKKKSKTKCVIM
T4 sequence (P01116 1-188 isoform P01116-2): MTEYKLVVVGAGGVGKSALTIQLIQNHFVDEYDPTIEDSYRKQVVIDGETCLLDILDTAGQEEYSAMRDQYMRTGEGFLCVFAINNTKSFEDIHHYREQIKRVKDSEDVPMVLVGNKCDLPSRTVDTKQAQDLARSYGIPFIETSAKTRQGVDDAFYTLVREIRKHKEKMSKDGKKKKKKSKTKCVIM
T3 sequence (P01116 1-188 isoform P01116-2 G12V): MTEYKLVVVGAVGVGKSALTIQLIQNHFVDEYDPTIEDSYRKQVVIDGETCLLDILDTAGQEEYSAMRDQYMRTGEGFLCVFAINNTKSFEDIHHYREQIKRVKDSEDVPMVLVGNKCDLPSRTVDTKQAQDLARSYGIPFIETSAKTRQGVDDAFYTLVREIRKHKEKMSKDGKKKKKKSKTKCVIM

Row | Structure (SMILES) | IC50 (K-Ras G12D) [µM] | IC50 (K-Ras G12S) [µM] | IC50 (K-Ras G12V) [µM] | IC50 (K-Ras WT) [µM] | IC50 (SW620 cells) [µM] | IC50 (GP2D cells) [µM] | IC50 (A549 cells) [µM]
1 | N#Cc1c(N)sc2c(F)ccc(-c3c(Cl)c4c5c(nc(OC[C@@]67CCCN6C[C@H](F)C7)nc5c3F)N(CCOC(F)F)CCO4)c12 [Compound 713, 2-amino-4-(8-chloro-4-(2-(difluoromethoxy)ethyl)-10-fluoro-2-(((2R,7aS)-2-fluorotetrahydro-1H-pyrrolizin-7a(5H)-yl)methoxy)-5,6-dihydro-4H-[1,4]oxazepino[5,6,7-de]quinazolin-9-yl)-7-fluorobenzo[b]thiophene-3-carbonitrile] | < 0.1 | < 0.1 | < 0.1 | < 0.1 | < 5 | < 0.5 | < 5
2 | N#Cc1c(N)sc2c(F)ccc(-c3c(Cl)c4c5c(nc(OC[C@@]67CCCN6C[C@H](F)C7)nc5c3F)N([C@@H]3CCN(C=O)C3)CCO4)c12 [Compound 716, 2-amino-4-(8-chloro-10-fluoro-2-(((2R,7aS)-2-fluorotetrahydro-1H-pyrrolizin-7a(5H)-yl)methoxy)-4-((R)-1-formylpyrrolidin-3-yl)-5,6-dihydro-4H-[1,4]oxazepino[5,6,7-de]quinazolin-9-yl)-7-fluorobenzo[b]thiophene-3-carbonitrile] | < 0.1 | < 0.1 | < 0.1 | < 0.1 | < 5 | < 0.5 | < 5
3 | N#Cc1c(N)sc2c(F)ccc(-c3c(Cl)c4c5c(nc(OC[C@@]67CCCN6C[C@H](F)C7)nc5c3F)N(C3CCC(F)(F)C3)CCO4)c12 (stereo partly drawn) [Compound 717, 2-amino-4-(8-chloro-4-(3,3-difluorocyclopentyl)-10-fluoro-2-(((2R,7aS)-2-fluorotetrahydro-1H-pyrrolizin-7a(5H)-yl)methoxy)-5,6-dihydro-4H-[1,4]oxazepino[5,6,7-de]quinazolin-9-yl)-7-fluorobenzo[b]thiophene-3-carbonitrile] | < 0.1 | < 0.1 | < 0.1 | < 0.1 | < 5 | < 0.5 | < 5
4 | N#Cc1c(N)sc2c(F)ccc(-c3c(Cl)c4c5c(nc(OC[C@@]67CCCN6C[C@H](F)C7)nc5c3F)N(C3CCC(C(F)F)C3)CCO4)c12 (stereo partly drawn) [Compound 718, 2-amino-4-(8-chloro-4-(3-(difluoromethyl)cyclopentyl)-10-fluoro-2-(((2R,7aS)-2-fluorotetrahydro-1H-pyrrolizin-7a(5H)-yl)methoxy)-5,6-dihydro-4H-[1,4]oxazepino[5,6,7-de]quinazolin-9-yl)-7-fluorobenzo[b]thiophene-3-carbonitrile] | < 0.1 | < 0.1 | < 0.1 | < 0.1 | < 5 | < 0.5 | < 5
5 | N#Cc1c(N)sc2c(F)ccc(-c3c(Cl)c4c5c(nc(OC[C@@]67CCCN6C[C@H](F)C7)nc5c3F)N(CC(F)(F)F)CCO4)c12 [Compound 721, 2-amino-4-(8-chloro-10-fluoro-2-(((2R,7aS)-2-fluorotetrahydro-1H-pyrrolizin-7a(5H)-yl)methoxy)-4-(2,2,2-trifluoroethyl)-5,6-dihydro-4H-[1,4]oxazepino[5,6,7-de]quinazolin-9-yl)-7-fluorobenzo[b]thiophene-3-carbonitrile] | < 0.1 | < 0.1 | < 0.1 | < 0.1 | < 5 | < 0.5 | < 5
6 | CN(C)C1(CN2CCOc3c(Cl)c(-c4ccc(F)c5sc(N)c(C#N)c45)c(F)c4nc(OC[C@@]56CCCN5C[C@H](F)C6)nc2c34)CC1 [Compound 725, 2-amino-4-(8-chloro-4-((1-(dimethylamino)cyclopropyl)methyl)-10-fluoro-2-(((2R,7aS)-2-fluorotetrahydro-1H-pyrrolizin-7a(5H)-yl)methoxy)-5,6-dihydro-4H-[1,4]oxazepino[5,6,7-de]quinazolin-9-yl)-7-fluorobenzo[b]thiophene-3-carbonitrile] | < 0.1 | < 0.1 | < 0.1 | < 0.1 | < 5 | < 0.5 | < 5
7 | C=C[C@H]1COc2c(Cl)c(-c3ccc(F)c4sc(N)c(C#N)c34)c(F)c3nc(OC[C@@]45CCCN4C[C@H](F)C5)nc(c23)N1C1CCOC1 (stereo partly drawn) [Compound 726, 2-amino-4-((5S)-8-chloro-10-fluoro-2-(((2R,7aS)-2-fluorotetrahydro-1H-pyrrolizin-7a(5H)-yl)methoxy)-4-(tetrahydrofuran-3-yl)-5-vinyl-5,6-dihydro-4H-[1,4]oxazepino[5,6,7-de]quinazolin-9-yl)-7-fluorobenzo[b]thiophene-3-carbonitrile] | < 0.1 | < 0.1 | < 0.1 | < 0.1 | < 5 | < 0.5 | < 5
8 | N#Cc1c(N)sc2c(F)ccc(-c3c(Cl)c4c5c(nc(OC[C@@]67CCCN6C[C@H](F)C7)nc5c3F)N(C3CCN(C(=O)[C@H]5CCOC5)C3)CCO4)c12 (stereo partly drawn) [Compound 736, 2-amino-4-(8-chloro-10-fluoro-2-(((2R,7aS)-2-fluorotetrahydro-1H-pyrrolizin-7a(5H)-yl)methoxy)-4-(1-((S)-tetrahydrofuran-3-carbonyl)pyrrolidin-3-yl)-5,6-dihydro-4H-[1,4]oxazepino[5,6,7-de]quinazolin-9-yl)-7-fluorobenzo[b]thiophene-3-carbonitrile] | < 0.1 | < 0.1 | < 0.1 | < 0.1 | < 5 | < 0.5 | < 5
9 | COC1(C)CC(N2CCOc3c(Cl)c(-c4ccc(F)c5sc(N)c(C#N)c45)c(F)c4nc(OC[C@@]56CCCN5C[C@H](F)C6)nc2c34)C1 (stereo partly drawn) [Compound 737, 2-amino-4-(8-chloro-10-fluoro-2-(((2R,7aS)-2-fluorotetrahydro-1H-pyrrolizin-7a(5H)-yl)methoxy)-4-(3-methoxy-3-methylcyclobutyl)-5,6-dihydro-4H-[1,4]oxazepino[5,6,7-de]quinazolin-9-yl)-7-fluorobenzo[b]thiophene-3-carbonitrile] | < 0.1 | < 0.1 | < 0.1 | < 0.1 | < 5 | < 0.5 | < 5
10 | N#Cc1c(N)sc2c(F)ccc(-c3c(Cl)c4c5c(nc(OC[C@@]67CCCN6C[C@H](F)C7)nc5c3F)N(C3CCC(OC(F)F)C3)CCO4)c12 (stereo partly drawn) [Compound 740, 2-amino-4-(8-chloro-4-(3-(difluoromethoxy)cyclopentyl)-10-fluoro-2-(((2R,7aS)-2-fluorotetrahydro-1H-pyrrolizin-7a(5H)-yl)methoxy)-5,6-dihydro-4H-[1,4]oxazepino[5,6,7-de]quinazolin-9-yl)-7-fluorobenzo[b]thiophene-3-carbonitrile] | < 0.1 | < 0.1 | < 0.1 | < 0.1 | < 5 | < 0.5 | < 5
